# Reference: patent publication US12194124B2, “Personal care compositions for treating odor causing bacteria and methods for the same” (Colgate-Palmolive Company, priority 2019, dated 2025)
# Test system: C. Striatum
# Test: Growth inhibition assay in 96-well plate, optical density of C. Striatum
# Type: cell-based, Corynebacterium striatum
# Experimental: The efficacy of 2-butyl octanol for selectively promoting, inhibiting, reducing, and/or treating bacterial growth was evaluated. Particularly, the efficacy of 2-butyl octanol for selectively promoting, inhibiting, reducing, and/or treating bacterial growth of Corynebacterium and Staphylococcus was evaluated. To evaluate the efficacy, an active solution was prepared by emulsifying 2-butyl octanol with a nonionic surfactant, namely, Polysorbate 80. The active solution included the 2-butyl octanol and the Polysorbate 80 in a ratio of about 83:17. Both positive controls (including no active solution) and negative controls (including no bacteria) were also prepared.
# A 96-well plate was utilized to evaluate the growth of the respective bacteria at varying dilutions. Each of the wells of a 96-well plate was aseptically filled with about 100 μL of Tryptic Soy Broth (TSB). In the first well of each row, about 100 μL of either the active solution (including the 2-butyl octanol and Polysorbate 80) or the desired solvent for the respective positive and negative controls was added to thereby provide a total of about 200 μL in the first well of the each respective row. A multi-channel pipette was then utilized to prepare a two-fold dilution in each column. Specifically, a multi-channel pipette set to about 100 μL was utilized to mix and transfer about 100 μL of the 200 μL from the wells of the first column to the respective wells of a subsequent column. This was repeated for each of the remaining eleven columns. About 100 μL of the twelfth column was removed, thereby leaving about 100 μL in each of the 96 wells. […] Specifically, a phosphate buffered saline (PBS) was utilized for the negative control. About 100 μL of the respective bacteria adjusted to 0.1 optical density (OD) bacteria was added to all other wells. The well plate was then incubated overnight at about 37° C. in a growth inhibition assay machine. Measurements were taken at about one hour increments.
smiles,measurement,setting,value
"CCCCCCC(CO)CCCC (stereo not shown) [2-butyl octanol, 2-butyl-1-octanol]",Measured Optical Density of C. Striatum,"0.02% 2-Butyl Octanol, 1 Hour",0
same,Measured Optical Density of C. Striatum,"0.02% 2-Butyl Octanol, 2 Hour",0.086
same,Measured Optical Density of C. Striatum,"0.02% 2-Butyl Octanol, 3 Hour",0.13
same,Measured Optical Density of C. Striatum,"0.02% 2-Butyl Octanol, 4 Hour",0.139
same,Measured Optical Density of C. Striatum,"0.02% 2-Butyl Octanol, 5 Hour",0.143
same,Measured Optical Density of C. Striatum,"0.02% 2-Butyl Octanol, 6 Hour",0.144
same,Measured Optical Density of C. Striatum,"0.02% 2-Butyl Octanol, 7 Hour",0.144
same,Measured Optical Density of C. Striatum,"0.02% 2-Butyl Octanol, 8 Hour",0.144
same,Measured Optical Density of C. Striatum,"0.02% 2-Butyl Octanol, 9 Hour",0.146
same,Measured Optical Density of C. Striatum,"0.02% 2-Butyl Octanol, 10 Hour",0.149
same,Measured Optical Density of C. Striatum,"0.02% 2-Butyl Octanol, 11 Hour",0.155
same,Measured Optical Density of C. Striatum,"0.02% 2-Butyl Octanol, 12 Hour",0.163
same,Measured Optical Density of C. Striatum,"0.02% 2-Butyl Octanol, 13 Hour",0.178
same,Measured Optical Density of C. Striatum,"0.02% 2-Butyl Octanol, 14 Hour",0.21
same,Measured Optical Density of C. Striatum,"0.02% 2-Butyl Octanol, 15 Hour",0.254
same,Measured Optical Density of C. Striatum,"0.02% 2-Butyl Octanol, 16 Hour",0.322
same,Measured Optical Density of C. Striatum,"0.02% 2-Butyl Octanol, 17 Hour",0.404
same,Measured Optical Density of C. Striatum,"0.02% 2-Butyl Octanol, 18 Hour",0.52
same,Measured Optical Density of C. Striatum,"0.04% 2-Butyl Octanol, 1 Hour",0.006
same,Measured Optical Density of C. Striatum,"0.04% 2-Butyl Octanol, 2 Hour",0.058
same,Measured Optical Density of C. Striatum,"0.04% 2-Butyl Octanol, 3 Hour",0.088
same,Measured Optical Density of C. Striatum,"0.04% 2-Butyl Octanol, 4 Hour",0.1
same,Measured Optical Density of C. Striatum,"0.04% 2-Butyl Octanol, 5 Hour",0.111
same,Measured Optical Density of C. Striatum,"0.04% 2-Butyl Octanol, 6 Hour",0.117
same,Measured Optical Density of C. Striatum,"0.04% 2-Butyl Octanol, 7 Hour",0.121
same,Measured Optical Density of C. Striatum,"0.04% 2-Butyl Octanol, 8 Hour",0.124
same,Measured Optical Density of C. Striatum,"0.04% 2-Butyl Octanol, 9 Hour",0.127
same,Measured Optical Density of C. Striatum,"0.04% 2-Butyl Octanol, 10 Hour",0.13
same,Measured Optical Density of C. Striatum,"0.04% 2-Butyl Octanol, 11 Hour",0.133
same,Measured Optical Density of C. Striatum,"0.04% 2-Butyl Octanol, 12 Hour",0.136
same,Measured Optical Density of C. Striatum,"0.04% 2-Butyl Octanol, 13 Hour",0.141
same,Measured Optical Density of C. Striatum,"0.04% 2-Butyl Octanol, 14 Hour",0.149
same,Measured Optical Density of C. Striatum,"0.04% 2-Butyl Octanol, 15 Hour",0.166
same,Measured Optical Density of C. Striatum,"0.04% 2-Butyl Octanol, 16 Hour",0.192
same,Measured Optical Density of C. Striatum,"0.04% 2-Butyl Octanol, 17 Hour",0.234
same,Measured Optical Density of C. Striatum,"0.04% 2-Butyl Octanol, 18 Hour",0.298
same,Measured Optical Density of C. Striatum,"0.08% 2-Butyl Octanol, 1 Hour",0.014
same,Measured Optical Density of C. Striatum,"0.08% 2-Butyl Octanol, 2 Hour",0.07
same,Measured Optical Density of C. Striatum,"0.08% 2-Butyl Octanol, 3 Hour",0.108
same,Measured Optical Density of C. Striatum,"0.08% 2-Butyl Octanol, 4 Hour",0.118
same,Measured Optical Density of C. Striatum,"0.08% 2-Butyl Octanol, 5 Hour",0.124
same,Measured Optical Density of C. Striatum,"0.08% 2-Butyl Octanol, 6 Hour",0.127
same,Measured Optical Density of C. Striatum,"0.08% 2-Butyl Octanol, 7 Hour",0.129
same,Measured Optical Density of C. Striatum,"0.08% 2-Butyl Octanol, 8 Hour",0.131
same,Measured Optical Density of C. Striatum,"0.08% 2-Butyl Octanol, 9 Hour",0.132
same,Measured Optical Density of C. Striatum,"0.08% 2-Butyl Octanol, 10 Hour",0.133
same,Measured Optical Density of C. Striatum,"0.08% 2-Butyl Octanol, 11 Hour",0.133
same,Measured Optical Density of C. Striatum,"0.08% 2-Butyl Octanol, 12 Hour",0.134
same,Measured Optical Density of C. Striatum,"0.08% 2-Butyl Octanol, 13 Hour",0.137
same,Measured Optical Density of C. Striatum,"0.08% 2-Butyl Octanol, 14 Hour",0.141
same,Measured Optical Density of C. Striatum,"0.08% 2-Butyl Octanol, 15 Hour",0.151
same,Measured Optical Density of C. Striatum,"0.08% 2-Butyl Octanol, 16 Hour",0.168
same,Measured Optical Density of C. Striatum,"0.08% 2-Butyl Octanol, 17 Hour",0.194
same,Measured Optical Density of C. Striatum,"0.08% 2-Butyl Octanol, 18 Hour",0.23
same,Measured Optical Density of C. Striatum,"0.16% 2-Butyl Octanol, 1 Hour",0.038
same,Measured Optical Density of C. Striatum,"0.16% 2-Butyl Octanol, 2 Hour",0.037
same,Measured Optical Density of C. Striatum,"0.16% 2-Butyl Octanol, 3 Hour",0.036
same,Measured Optical Density of C. Striatum,"0.16% 2-Butyl Octanol, 4 Hour",0.036
same,Measured Optical Density of C. Striatum,"0.16% 2-Butyl Octanol, 5 Hour",0.036
same,Measured Optical Density of C. Striatum,"0.16% 2-Butyl Octanol, 6 Hour",0.036
same,Measured Optical Density of C. Striatum,"0.16% 2-Butyl Octanol, 7 Hour",0.035
same,Measured Optical Density of C. Striatum,"0.16% 2-Butyl Octanol, 8 Hour",0.036
same,Measured Optical Density of C. Striatum,"0.16% 2-Butyl Octanol, 9 Hour",0.036
same,Measured Optical Density of C. Striatum,"0.16% 2-Butyl Octanol, 10 Hour",0.037
same,Measured Optical Density of C. Striatum,"0.16% 2-Butyl Octanol, 11 Hour",0.037
same,Measured Optical Density of C. Striatum,"0.16% 2-Butyl Octanol, 12 Hour",0.037
same,Measured Optical Density of C. Striatum,"0.16% 2-Butyl Octanol, 13 Hour",0.038
same,Measured Optical Density of C. Striatum,"0.16% 2-Butyl Octanol, 14 Hour",0.038
same,Measured Optical Density of C. Striatum,"0.16% 2-Butyl Octanol, 15 Hour",0.039
same,Measured Optical Density of C. Striatum,"0.16% 2-Butyl Octanol, 16 Hour",0.04
same,Measured Optical Density of C. Striatum,"0.16% 2-Butyl Octanol, 17 Hour",0.041
same,Measured Optical Density of C. Striatum,"0.16% 2-Butyl Octanol, 18 Hour",0.041
same,growth of C. stratium,2-butyl octanol at least about 1.6% or greater (Table 3),completely inhibited
